In ChEMBL document CHEMBL2440076, “New triarylpyrazoles as broad-spectrum anticancer agents: design, synthesis, and biological evaluation” (Eur J Med Chem, 2013):

Experiments:
[1] = tested on: HL-60(TB); experiment: Growth inhibition of human HL-60(TB) cells assessed as cell growth at 10 uM after 48 hrs by sulforhodamine B assay; assay type: functional; details: HL-60, 48 h, read-out: Activity
[2] = tested on: UACC-257; experiment: Growth inhibition of human UACC257 cells assessed as cell growth at 10 uM after 48 hrs by sulforhodamine B assay; assay type: functional; details: UACC-257, 48 h, read-out: Activity
[3] = tested on: RXF 393; experiment: Growth inhibition of human RXF393 cells assessed as cell growth at 10 uM after 48 hrs by sulforhodamine B assay; assay type: functional; details: RXF 393, 48 h, read-out: Activity
[4] = Growth inhibition of human NCI-ADR-RES cells assessed as cell growth at 10 uM after 48 hrs by sulforhodamine B assay; assay type: functional; details: read-out: Activity
[5] = Growth inhibition of human HCC2998 cells assessed as cell growth at 10 uM after 48 hrs by sulforhodamine B assay; assay type: functional; details: HCC 2998, 48 h, read-out: Activity
[6] = tested on: HOP-92; experiment: Growth inhibition of human HOP92 cells after 48 hrs by sulforhodamine B assay; assay type: functional, cell-based; details: HOP-92, 48 h
[7] = tested on: Malme-3M; experiment: Growth inhibition of human MALME-3M cells after 48 hrs by sulforhodamine B assay; assay type: functional
[8] = tested on: NCI-H460; experiment: Growth inhibition of human NCI-H460 cells assessed as cell growth at 10 uM after 48 hrs by sulforhodamine B assay; assay type: functional; details: NCI-H460, 48 h, read-out: Activity
[9] = tested on: HCT-116; experiment: Growth inhibition of human HCT116 cells assessed as cell growth at 10 uM after 48 hrs by sulforhodamine B assay; assay type: functional; details: HCT-116, 48 h, read-out: Activity
[10] = tested on: SF-268; experiment: Growth inhibition of human SF268 cells after 48 hrs by sulforhodamine B assay; assay type: functional; details: SF-268, 48 h
[11] = tested on: DU-145; experiment: Growth inhibition of human DU145 cells after 48 hrs by sulforhodamine B assay; assay type: functional; details: DU-145, 48 h
[12] = tested on: IGROV-1; experiment: Growth inhibition of human IGROV1 cells assessed as cell growth at 10 uM after 48 hrs by sulforhodamine B assay; assay type: functional; details: IGROV-1, 48 h, read-out: Activity
[13] = tested on: NCI-H522; experiment: Growth inhibition of human NCI-H522 cells assessed as cell growth at 10 uM after 48 hrs by sulforhodamine B assay; assay type: functional; details: NCI-H522, 48 h, read-out: Activity
[14] = tested on: PC-3; experiment: Growth inhibition of human PC3 cells after 48 hrs by sulforhodamine B assay; assay type: functional, cell-based; details: PC-3, 48 h
[15] = tested on: COLO 205; experiment: Growth inhibition of human COLO205 cells assessed as cell growth at 10 uM after 48 hrs by sulforhodamine B assay; assay type: functional; details: COLO 205, 48 h, read-out: Activity
[16] = Growth inhibition of human Hs 578T cells after 48 hrs by sulforhodamine B assay; assay type: functional
[17] = tested on: SK-OV-3; experiment: Growth inhibition of human SKOV3 cells after 48 hrs by sulforhodamine B assay; assay type: functional; details: SK-OV-3, 48 h
[18] = tested on: MOLT-4; experiment: Growth inhibition of human MOLT4 cells after 48 hrs by sulforhodamine B assay; assay type: functional; details: MOLT-4, 48 h
[19] = tested on: A549; experiment: Growth inhibition of human A549/ATCC cells after 48 hrs by sulforhodamine B assay; assay type: functional; details: A549, 48 h
[20] = tested on: SF-539; experiment: Growth inhibition of human SF539 cells assessed as cell growth at 10 uM after 48 hrs by sulforhodamine B assay; assay type: functional; details: SF-539, 48 h, read-out: Activity
[21] = tested on: OVCAR-3; experiment: Growth inhibition of human OVCAR3 cells after 48 hrs by sulforhodamine B assay; assay type: functional, cell-based; details: OVCAR-3, 48 h
[22] = tested on: HCT-116; experiment: Growth inhibition of human HCT116 cells after 48 hrs by sulforhodamine B assay; assay type: functional; details: HCT-116, 48 h
[23] = tested on: NCI-H460; experiment: Growth inhibition of human NCI-H460 cells after 48 hrs by sulforhodamine B assay; assay type: functional; details: NCI-H460, 48 h
[24] = tested on: OVCAR-3; experiment: Growth inhibition of human OVCAR3 cells assessed as cell growth at 10 uM after 48 hrs by sulforhodamine B assay; assay type: functional; details: OVCAR-3, 48 h, read-out: Activity
[25] = tested on: NCI-H322M; experiment: Growth inhibition of human NCI-H322M cells after 48 hrs by sulforhodamine B assay; assay type: functional
[26] = tested on: NCI-H226; experiment: Growth inhibition of human NCI-H226 cells assessed as cell growth at 10 uM after 48 hrs by sulforhodamine B assay; assay type: functional; details: NCI-H226, 48 h, read-out: Activity
[27] = tested on: NCI-H226; experiment: Growth inhibition of human NCI-H226 cells after 48 hrs by sulforhodamine B assay; assay type: functional; details: NCI-H226, 48 h
[28] = tested on: CCRF-CEM; experiment: Growth inhibition of human CCRF-CEM cells assessed as cell growth at 10 uM after 48 hrs by sulforhodamine B assay; assay type: functional; details: read-out: Activity
[29] = tested on: LOX IMVI; experiment: Growth inhibition of human LOXIMVI cells assessed as cell growth at 10 uM after 48 hrs by sulforhodamine B assay; assay type: functional; details: read-out: Activity
[30] = tested on: HCT-15; experiment: Growth inhibition of human HCT15 cells assessed as cell growth at 10 uM after 48 hrs by sulforhodamine B assay; assay type: functional; details: HCT-15, 48 h, read-out: Activity
[31] = tested on: MOLT-4; experiment: Growth inhibition of human MOLT4 cells assessed as cell growth at 10 uM after 48 hrs by sulforhodamine B assay; assay type: functional; details: MOLT-4, 48 h, read-out: Activity
[32] = Growth inhibition of human NCI-ADR-RES cells after 48 hrs by sulforhodamine B assay; assay type: functional
[33] = tested on: MCF7; experiment: Growth inhibition of human MCF7 cells assessed as cell growth at 10 uM after 48 hrs by sulforhodamine B assay; assay type: functional; details: MCF7, 48 h, read-out: Activity
[34] = tested on: SN12C; experiment: Growth inhibition of human SN12C cells after 48 hrs by sulforhodamine B assay; assay type: functional
[35] = read-out: LC50 (the source's name)

O=C(Nc1cccc(-n2cc(-c3ccncc3)c(-c3ccc(Cl)c(O)c3)n2)c1)c1ccc(N2CCOCC2)c(C(F)(F)F)c1
growth at 10 µM [1]: 51.6%
growth at 10 µM [2]: 38.9%
growth at 10 µM [3]: -26%
growth at 10 µM [4]: 43.9%
growth at 10 µM [5]: 56.4%
GI50 [6]: 0.555 µM
IC50 [6]: 0.56 µM
LC50 [6]: > 50 µM
TGI [6]: 3.81 µM
GI50 [7]: 1.25 µM
LC50 (concentration killing 50% of starting cells) [7]: > 50 µM
TGI [7]: 4.08 µM
growth at 10 µM [8]: 5.81%
growth at 10 µM [9]: 29.6%
GI50 [10]: 5.58 µM
TGI [10]: > 50 µM
CC50 [10, 35]: > 50 µM
GI50 [11]: 4.2 µM
LC50 [11]: > 50 µM
TGI [11]: > 50 µM
growth at 10 µM [12]: 96.8%
growth at 10 µM [13]: 39.6%
GI50 [14]: 2.15 µM
IC50 [14]: 2.15 µM
TGI [14]: > 50 µM
CC50 [14, 35]: > 50 µM
growth at 10 µM [15]: 96.1%
GI50 [16]: 1.85 µM
TGI [16]: > 50 µM
CC50 [16, 35]: > 50 µM
GI50 [17]: 20 µM
TGI [17]: > 50 µM
CC50 [17, 35]: > 50 µM
GI50 [18]: 2.37 µM
TGI [18]: 36.7 µM
CC50 [18, 35]: > 50 µM
GI50 [19]: 3.08 µM
LC50 (concentration killing 50% of starting cells) [19]: > 50 µM
TGI [19]: > 50 µM
growth at 10 µM [20]: 41.6%
GI50 [21]: 4.81 µM
IC50 [21]: 4.81 µM
TGI [21]: > 50 µM
CC50 [21, 35]: > 50 µM
GI50 [22]: 2.87 µM
TGI [22]: > 50 µM
CC50 [22, 35]: > 50 µM
GI50 [23]: 1.72 µM
LC50 [23]: > 50 µM
TGI [23]: 14.8 µM
growth at 10 µM [24]: 56%
GI50 [25]: > 50 µM
TGI [25]: > 50 µM
CC50 [25, 35]: > 50 µM
growth at 10 µM [26]: 107%
GI50 [27]: > 50 µM
TGI [27]: > 50 µM
CC50 [27, 35]: > 50 µM
growth at 10 µM [28]: 27.9%
growth at 10 µM [29]: 9.98%
growth at 10 µM [30]: 26.2%
growth at 10 µM [31]: 29.1%
GI50 [32]: 2.86 µM
TGI [32]: > 50 µM
CC50 [32, 35]: > 50 µM
growth at 10 µM [33]: 60.6%
GI50 [34]: 22 µM
TGI [34]: > 50 µM
CC50 [34, 35]: > 50 µM
